Common to all, as to assay: surface plasmon resonance, immobilized protein, […] model
Common to all, as to format: binding
A general note: In SPR one partner is held on a chip, and binding of the other changes the refractive index at the surface.

Assay [1] deals with T1, SR-B2 (Scavenger receptor class B protein 2) (Homo sapiens, UniProt Q14108).
T1 sequence (Q14108 1-478): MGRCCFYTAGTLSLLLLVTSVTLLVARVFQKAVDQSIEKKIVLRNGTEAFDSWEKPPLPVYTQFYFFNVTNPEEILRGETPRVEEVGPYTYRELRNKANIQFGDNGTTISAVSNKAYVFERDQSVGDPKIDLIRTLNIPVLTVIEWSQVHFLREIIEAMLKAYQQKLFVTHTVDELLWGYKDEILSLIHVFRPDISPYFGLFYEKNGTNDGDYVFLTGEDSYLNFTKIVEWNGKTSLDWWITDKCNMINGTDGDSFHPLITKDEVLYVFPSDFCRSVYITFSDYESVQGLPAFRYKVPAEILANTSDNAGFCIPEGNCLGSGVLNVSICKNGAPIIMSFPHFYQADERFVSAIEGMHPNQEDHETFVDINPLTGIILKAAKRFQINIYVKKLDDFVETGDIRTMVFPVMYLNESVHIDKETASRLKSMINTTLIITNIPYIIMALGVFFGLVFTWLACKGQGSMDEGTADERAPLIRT

Assay [2] addresses T2, SR-B1 (Scavenger receptor class B protein 1) (Homo sapiens, UniProt Q8WTV0).
T2 sequence (Q8WTV0 33-443 limits assumed): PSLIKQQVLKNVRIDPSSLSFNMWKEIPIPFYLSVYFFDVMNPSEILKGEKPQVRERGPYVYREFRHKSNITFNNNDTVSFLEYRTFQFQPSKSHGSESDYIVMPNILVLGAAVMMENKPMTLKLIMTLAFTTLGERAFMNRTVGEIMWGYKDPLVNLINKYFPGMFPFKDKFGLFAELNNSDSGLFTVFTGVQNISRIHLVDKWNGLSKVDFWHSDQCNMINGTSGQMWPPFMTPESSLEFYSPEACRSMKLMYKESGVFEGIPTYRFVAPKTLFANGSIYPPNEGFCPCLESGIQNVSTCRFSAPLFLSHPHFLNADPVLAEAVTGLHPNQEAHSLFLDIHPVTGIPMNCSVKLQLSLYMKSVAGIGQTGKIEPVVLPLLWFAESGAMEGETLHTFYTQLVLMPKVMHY

Assay [3] concerns the target CD36 (Cluster determinant 36) (Homo sapiens, UniProt P16671).

By Kd is commonly meant the free concentration of one partner at which half of the binding sites on the other are occupied at equilibrium, for simple one-to-one binding. A high value points to lower affinity.

CD36 (Cluster determinant 36), sequence (P16671 30-439 limits assumed): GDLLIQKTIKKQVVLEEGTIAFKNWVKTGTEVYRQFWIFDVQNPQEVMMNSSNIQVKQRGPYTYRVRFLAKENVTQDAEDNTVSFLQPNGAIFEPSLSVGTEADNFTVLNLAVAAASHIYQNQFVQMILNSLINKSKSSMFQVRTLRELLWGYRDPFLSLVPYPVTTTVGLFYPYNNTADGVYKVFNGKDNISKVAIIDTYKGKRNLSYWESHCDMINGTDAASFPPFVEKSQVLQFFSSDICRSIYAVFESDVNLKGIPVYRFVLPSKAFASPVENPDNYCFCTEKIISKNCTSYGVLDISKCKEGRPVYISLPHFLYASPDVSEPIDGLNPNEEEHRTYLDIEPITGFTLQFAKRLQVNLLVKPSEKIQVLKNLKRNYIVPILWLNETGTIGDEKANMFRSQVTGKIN

For the compound `CC1=C(/C=C/C(C)=C/C=C/C(C)=C/C=C/C=C(C)/C=C/C=C(C)/C=C/C2=C(C)C[C@@H](O)CC2(C)C)C(C)(C)C[C@H](O)C1` [zeaxanthin], the Kd in assay [1] is 1530 ± 40 nM; in assay [2] it was 1600 ± 100 nM; in assay [3] it was 920 ± 7 nM.
Take `CC1=C[C@H](O)CC(C)(C)[C@H]1/C=C/C(C)=C/C=C/C(C)=C/C=C/C=C(C)/C=C/C=C(C)/C=C/C1=C(C)C[C@@H](O)CC1(C)C` [lutein]: the Kd turned out to be 2510 ± 40 nM in assay [1], 2040 ± 40 nM in assay [2] and 730 ± 6 nM in assay [3].
`CC1=C(/C=C/C(C)=C/C=C/C(C)=C/C=C/C=C(C)/C=C/C=C(C)/C=C/C2=C(C)C[C@H](O)CC2(C)C)C(C)(C)C[C@H](O)C1` [meso-zeaxanthin]: the results for the dissociation constant (Kd) in assay [1], in assay [2] and in assay [3] were 3900 ± 40 nM, 3100 ± 200 nM and 1660 ± 10 nM, respectively.

For the origin of these results see PMC5698089 (Archives of biochemistry and biophysics, 2017).
